Results as given in patent US20260265265A1, “NOVEL BENZIMIDAZOLONE DERIVATIVE COMPOUND AS AUTOTAXIN INHIBITOR” (LG CHEM, LTD., priority 2023, published 2026).

What follows are compounds tested against T1, Recombinant Human ENPP-2/Autotaxin (Homo sapiens, UniProt Q13822) (assay: LysoPLD activity measurement (autotaxin enzyme inhibition, choline release, TOOS reagent)). Settings: LysoPLD inhibitory activity; substrate 14:0 LysoPC; absorbance at 555 nm.
T1 construct: purchased R&D systems 5255-EN
Assay type: biochemical
Outline: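 Enzyme and compound were preincubated for 30 min before adding 14:0 LysoPC substrate, diluted to 300 μM, for 90 minutes at 37° C. The choline product was quantified colorimetrically with TOOS reagent. Wells without compound held 1% DMSO.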

`O=C(O)c1cccc(Cn2c(=O)n(-c3cnc(N4CCOCC4)nc3)c3cc(Cl)ccc32)c1` [Example 83, 3-((5-chloro-3-(2-morpholinopyrimidin-5-yl)-2-oxo-2,3-dihydro-1H-benzo[d]imidazol-1-yl)methyl)benzoic acid] and `O=C(O)c1cccc(Cn2c(=O)n(-c3cnn(C4CCOCC4)c3)c3cc(Cl)ccc32)c1` [Example 86, 3-((5-chloro-2-oxo-3-(1-(tetrahydro-2H-pyran-4-yl)-1H-pyrazol-4-yl)-2,3-dihydro-1H-benzo[d]imidazol-1-yl)methyl)benzoic acid] fall in the same range of IC50: 100 to 1000 nM for the first, 100 to 1000 nM for the second.

`CCCn1cc(-n2c(=O)n(Cc3cccc(C(=O)O)c3)c3ccc(Cl)cc32)cn1` [Example 84, 3-((5-chloro-2-oxo-3-(1-propyl-1H-pyrazol-4-yl)-2,3-dihydro-1H-benzo[d]imidazol-1-yl)methyl)benzoic acid] and `O=C(O)c1cccc(Cn2c(=O)n(-c3cnn(CC4CC4)c3)c3cc(Cl)ccc32)c1` [Example 90, 3-((5-chloro-3-(1-cyclopropylmethyl-1H-pyrazol-4-yl)-2-oxo-2,3-dihydro-1H-benzo[d]imidazol-1-yl)methyl)benzoic acid] fall in the same range of IC50: 100 to 1000 nM for the first, 100 to 1000 nM for the second.

`CCCn1cc(-n2c(=O)n(Cc3cccc(C(=O)O)c3)c3ccc(Cl)c(F)c32)cn1` [Example 88, 3-((5-chloro-4-fluoro-2-oxo-3-(1-propyl-1H-pyrazol-4-yl)-2,3-dihydro-1H-benzo[d]imidazol-1-yl)methyl)benzoic acid] and `CCCn1cc(-n2c(=O)n(Cc3cccc(C(=O)O)c3F)c3ccc(Cl)c(F)c32)cn1` [Example 92, 3-((5-chloro-4-fluoro-2-oxo-3-(1-propyl-1H-pyrazol-4-yl)-2,3-dihydro-1H-benzo[d]imidazol-1-yl)methyl)-2-fluorobenzoic acid] fall in the same range of IC50: 10 to 100 nM for the first, 10 to 100 nM for the second.

`CC(C)n1cc(-n2c(=O)n(Cc3cccc(C(=O)O)c3)c3ccc(Cl)cc32)cn1` [Example 89, 3-((5-chloro-3-(1-isopropyl-1H-pyrazol-4-yl)-2-oxo-2,3-dihydro-1H-benzo[d]imidazol-1-yl)methyl)benzoic acid] and `O=C(O)c1cccc(Cn2c(=O)n(-c3cnn(CC4CCC4)c3)c3cc(Cl)ccc32)c1` [Example 91, 3-((5-chloro-3-(1-cyclobutylmethyl-1H-pyrazol-4-yl)-2-oxo-2,3-dihydro-1H-benzo[d]imidazol-1-yl)methyl)benzoic acid] fall in the same range of IC50: 100 to 1000 nM for the first, 100 to 1000 nM for the second.

`O=C(O)c1cccc(C2(n3c(=O)n(-c4ccc(C(=O)N5CC6(CCOCC6)C5)cc4)c4cc(Cl)ccc43)CC2)c1` [Example 93, 3-(1-(3-(4-(7-oxa-2-azaspiro[3.5]nonane-2-carbonyl)phenyl)-5-chloro-2-oxo-2,3-dihydro-1H-benzo[d]imidazol-1-yl)cyclopropyl)benzoic acid] and `O=C(O)c1cccc(C2(n3c(=O)n(-c4ccc(C(=O)N5CC6(CCOCC6)C5)cc4)c4cc(Cl)ccc43)CC2)c1F` [Example 107, 3-(1-(3-(4-(7-oxa-2-azaspiro[3.5]nonane-2-carbonyl)phenyl)-5-chloro-2-oxo-2,3-dihydro-1H-benzo[d]imidazol-1-yl)cyclopropyl)-2-fluorobenzoic acid] cannot be ordered by IC50: < 10 nM for the first, < 10 nM for the second.

First: O=C(O)c1cccc(Cn2c(=O)n(-c3ccc(N4CCC(F)(F)CC4)cc3)c3cc(Cl)ccc32)c1 [Example 94, 3-((5-chloro-3-(4-(4,4-difluoropiperidin-1-yl)phenyl)-2-oxo-2,3-dihydro-1H-benzo[d]imidazol-1-yl)methyl)benzoic acid]
Second: CN1CCN(c2ccc(-n3c(=O)n(Cc4cccc(C(=O)O)c4)c4ccc(Cl)cc43)cc2)CC1 [Example 97, 3-((5-chloro-3-(4-(4-methylpiperazin-1-yl)phenyl)-2-oxo-2,3-dihydro-1H-benzo[d]imidazol-1-yl)methyl)benzoic acid]
The IC50 of the first is lower: 10 to 100 nM for the first, 100 to 1000 nM for the second. The first is the more potent here.

`O=C(O)c1cccc(Cn2c(=O)n(-c3ccc(N4CCN(C(=O)C5CC5)CC4)cc3)c3cc(Cl)ccc32)c1` [Example 95, 3-((5-chloro-3-(4-(4-(cyclopropanecarbonyl)piperazin-1-yl)phenyl)-2-oxo-2,3-dihydro-1H-benzo[d]imidazol-1-yl)methyl)benzoic acid] and `CC(C)OC(=O)N1CCN(c2ccc(-n3c(=O)n(Cc4cccc(C(=O)O)c4)c4ccc(Cl)cc43)cc2)CC1` [Example 96, 3-((5-chloro-3-(4-(4-(isopropoxycarbonyl)piperazin-1-yl)phenyl)-2-oxo-2,3-dihydro-1H-benzo[d]imidazol-1-yl)methyl)benzoic acid] fall in the same range of IC50: 10 to 100 nM for the first, 10 to 100 nM for the second.

Compared with `O=C(O)c1cccc(C2(n3c(=O)n(-c4ccc(C5CCCCC5)cc4)c4cc(Cl)ccc43)CC2)c1` [Example 98, 3-(1-(5-chloro-3-(4-cyclohexylphenyl)-2-oxo-2,3-dihydro-1H-benzo[d]imidazol-1-yl)cyclopropyl)benzoic acid], `O=C(O)c1cccc(C2(n3c(=O)n(-c4ccc(C5CCOCC5)cc4)c4cc(Cl)ccc43)CC2)c1` [Example 99, 3-(1-(5-chloro-2-oxo-3-(4-(tetrahydro-2H-pyran-4-yl)phenyl)-2,3-dihydro-1H-benzo[d]imidazol-1-yl)cyclopropyl)benzoic acid] is lower in IC50: 100 to 1000 nM for the first, < 10 nM for the second. The second is the more potent here.

Compared with `O=C(O)c1cccc(Cn2c(=O)n(-c3ccc(C4CCN(C(=O)C5CC5)CC4)cc3)c3cc(Cl)ccc32)c1` [Example 100, 3-((5-chloro-3-(4-(1-(cyclopropanecarbonyl)piperidin-4-yl)phenyl)-2-oxo-2,3-dihydro-1H-benzo[d]imidazol-1-yl)methyl)benzoic acid], `O=C(O)c1cccc(Cn2c(=O)n(-c3ccc(C4CCN(C(=O)C5CCC5)CC4)cc3)c3cc(Cl)ccc32)c1` [Example 101, 3-((5-chloro-3-(4-(1-(cyclobutanecarbonyl)piperidin-4-yl)phenyl)-2-oxo-2,3-dihydro-1H-benzo[d]imidazol-1-yl)methyl)benzoic acid] is higher in IC50: 10 to 100 nM for the first, 100 to 1000 nM for the second.

`CCC(=O)N1CCC(c2ccc(-n3c(=O)n(Cc4cccc(C(=O)O)c4)c4ccc(Cl)cc43)cc2)CC1` [Example 102, 3-((5-chloro-2-oxo-3-(4-(1-propionylpiperidin-4-yl)phenyl)-2,3-dihydro-1H-benzo[d]imidazol-1-yl)methyl)benzoic acid] and `O=C(O)c1cccc(Cn2c(=O)n(-c3ccc(C4CCOCC4)cc3)c3cc(Cl)ccc32)c1` [Example 103, 3-((5-chloro-2-oxo-3-(4-(tetrahydro-2H-pyran-4-yl)phenyl)-2,3-dihydro-1H-benzo[d]imidazol-1-yl)methyl)benzoic acid] fall in the same range of IC50: 10 to 100 nM for the first, 10 to 100 nM for the second.

First: O=C(O)c1cccc(Cn2c(=O)n(-c3ccc(C4=CCOCC4)cc3)c3cc(Cl)ccc32)c1 [Example 104, 3-((5-chloro-3-(4-(3,6-dihydro-2H-pyran-4-yl)phenyl)-2-oxo-2,3-dihydro-1H-benzo[d]imidazol-1-yl)methyl)benzoic acid]
Second: O=C(O)c1cccc(Cn2c(=O)n(-c3ccc(C4=CCCCC4)cc3)c3cc(Cl)ccc32)c1 [Example 109, 3-((5-chloro-2-oxo-3-(2′,3′,4′,5′-tetrahydro-[1,1′-biphenyl]-4-yl)-2,3-dihydro-1H-benzo[d]imidazol-1-yl)methyl)benzoic acid]
The IC50 of the first is lower: 10 to 100 nM for the first, 100 to 1000 nM for the second. The first is the more potent here.

`O=C(O)c1cccc(Cn2c(=O)n(-c3ccc(N4CCC(F)(F)C4)cc3)c3c(F)c(Cl)ccc32)c1` [Example 105, 3-((5-chloro-3-(4-(3,3-difluoropyrrolidin-1-yl)phenyl)-4-fluoro-2-oxo-2,3-dihydro-1H-benzo[d]imidazol-1-yl)methyl)benzoic acid] and `CC1(C)Cc2cc(-n3c(=O)n(Cc4cccc(C(=O)O)c4)c4ccc(Cl)cc43)ccc2C1=O` [Example 115, 3-((5-chloro-3-(2,2-dimethyl-1-oxo-2,3-dihydro-1H-inden-5-yl)-2-oxo-2,3-dihydro-1H-benzo[d]imidazol-1-yl)methyl)benzoic acid] fall in the same range of IC50: 100 to 1000 nM for the first, 100 to 1000 nM for the second.

First: O=C(O)c1cccc(C2(n3c(=O)n(-c4ccc(C5CCOCC5)cc4)c4cc(Cl)ccc43)CC2)c1F [Example 106, 3-(1-(5-chloro-2-oxo-3-(4-(tetrahydro-2H-pyran-4-yl)phenyl)-2,3-dihydro-1H-benzo[d]imidazol-1-yl)cyclopropyl)-2-fluorobenzoic acid]
Second: O=C(O)c1cccc(Cn2c(=O)n(-c3ccc(C4CCOCC4)cc3)c3cc(Cl)ccc32)c1F [Example 108, 3-((5-chloro-2-oxo-3-(4-(tetrahydro-2H-pyran-4-yl)phenyl)-2,3-dihydro-1H-benzo[d]imidazol-1-yl)methyl)-2-fluorobenzoic acid]
The IC50 of the first is lower: < 10 nM for the first, 10 to 100 nM for the second. The first is the more potent here.

First: O=C(O)c1cccc(Cn2c(=O)n(-c3ccc(C4=CCOC4)cc3)c3cc(Cl)ccc32)c1F [Example 110, 3-((5-chloro-3-(4-(2,5-dihydrofuran-3-yl)phenyl)-2-oxo-2,3-dihydro-1H-benzo[d]imidazol-1-yl)methyl)-2-fluorobenzoic acid]
Second: CC1CC=C(c2ccc(-n3c(=O)n(Cc4cccc(C(=O)O)c4F)c4ccc(Cl)cc43)cc2)CC1 (stereo not drawn) [Example 111, 3-((5-chloro-3-(4′-methyl-2′,3′,4′,5′-tetrahydro-′[1,1′-biphenyl]-4-yl)-2-oxo-2,3-dihydro-1H-benzo[d]imidazol-1-yl)methyl)-2-fluorobenzoic acid]
The IC50 of the first is lower: 10 to 100 nM for the first, 100 to 1000 nM for the second. The first is the more potent here.

`CC1(C)CC=C(c2ccc(-n3c(=O)n(Cc4cccc(C(=O)O)c4F)c4ccc(Cl)cc43)cc2)CC1` [Example 112, 3-((5-chloro-3-(4′,4′-dimethyl-2′,3′,4′,5′-tetrahydro-[1,1′-biphenyl]-4-yl)-2-oxo-2,3-dihydro-1H-benzo[d]imidazol-1-yl)methyl)-2-fluorobenzoic acid] and `CN(C)C(=O)c1ccc(-n2c(=O)n(CCc3cccc(C(=O)O)c3)c3ccc(Cl)cc32)cc1` [Example 113, 3-(2-(5-chloro-3-(4-(dimethylcarbamoyl)phenyl)-2-oxo-2,3-dihydro-1H-benzo[d]imidazol-1-yl)ethyl)benzoic acid] fall in the same range of IC50: 100 to 1000 nM for the first, 100 to 1000 nM for the second.
